This passage reports EC50 and IC50 results from patent publication US6872805B2 (Bristol-Myers Squibb Company, priority 2000, dated 2005).

Test [1] has as its system HCV replicon in Huh7 cells. Briefly: HCV replicon cell-based assay. On the set-up: species or system HCV strain 1B. Conditions: Hepatitis C virus, Huh-7, 96 h; HCV replicon, Huh7 cells, 4 days; activity ranges; read-out: EC50. The method in brief: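 Genotype 1b subgenomic replicon Huh7 cells exposed to compound 4 days at 37° C in 4% FCS, 0.5% DMSO medium. EC50 from TaqMan RT-PCR of HCV RNA, normalized to total RNA by RiboGreen; CC50 from alamar Blue fluorescence after 4 h.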

Test [2] addresses HCV NS3/4A protease complex (Hepatitis C virus genotype 1a, UniProt P27958, C1454S/C1711G). Briefly: Recombinant HCV NS3/4A protease complex FRET peptide assay (strain not stated). Conditions: IC50, NS3/4A protease enzyme assay, strain not stated; activity ranges. It is filed as biochemical.

Chain of HCV NS3/4A protease complex (P27958 1027-1711, stated change not applied): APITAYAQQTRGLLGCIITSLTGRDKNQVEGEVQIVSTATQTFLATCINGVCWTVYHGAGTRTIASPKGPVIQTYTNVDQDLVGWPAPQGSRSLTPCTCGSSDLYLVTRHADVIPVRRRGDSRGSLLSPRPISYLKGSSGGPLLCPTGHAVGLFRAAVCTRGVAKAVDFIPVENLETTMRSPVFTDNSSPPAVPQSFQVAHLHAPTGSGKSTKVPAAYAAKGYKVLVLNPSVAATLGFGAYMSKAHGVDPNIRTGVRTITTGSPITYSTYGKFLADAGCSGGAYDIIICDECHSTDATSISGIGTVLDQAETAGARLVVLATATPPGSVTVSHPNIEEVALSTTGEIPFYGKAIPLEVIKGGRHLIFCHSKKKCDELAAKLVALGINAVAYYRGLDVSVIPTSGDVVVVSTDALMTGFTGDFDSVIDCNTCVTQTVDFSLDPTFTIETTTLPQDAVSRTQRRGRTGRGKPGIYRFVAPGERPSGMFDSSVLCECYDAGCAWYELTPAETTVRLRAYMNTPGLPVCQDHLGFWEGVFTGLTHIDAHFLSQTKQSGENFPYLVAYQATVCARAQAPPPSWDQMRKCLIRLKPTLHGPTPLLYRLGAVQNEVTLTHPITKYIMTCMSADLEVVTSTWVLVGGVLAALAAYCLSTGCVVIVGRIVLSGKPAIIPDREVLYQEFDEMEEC
Chain of HCV NS3/4A protease complex (P27958 1027-1711, stated change not applied): as above

Regarding `C=CC1C[C@]1(NC(=O)[C@@H]1C[C@@H](Oc2cc(-c3ccccc3)nc3cc(OC)ccc23)CN1C(=O)[C@H](CC(C)C)NC(=O)OC(C)(C)C)C(=O)NS(=O)(=O)C(C)C` (some centres unmarked) [Compound 34], the EC50 in test [1] was < 500 nM. Further, the IC50 in test [2] was < 50 nM.

With `C=CC1C[C@]1(NC(=O)C1CC(Oc2cc(-c3ccccc3)nc3cc(OC)ccc23)CN1C(=O)[C@@H](NC)C(C)(C)C)C(=O)NS(=O)(=O)C1CC1` (stereo partly drawn) [Compound 132, (3,3-dimethyl-2-methylamino-butyryl)-4R-(7-methoxy-2-phenyl-quinolin-4-yloxy)-pyrrolidine-2S-carboxylic acid (1R-cyclopropanesulfonylaminocarbonyl-2S-vinyl-cyclo-propyl)amide], in test [1], the EC50 was < 5000 nM. The half-inhibitory concentration (IC50) in test [2] is < 50 nM.

As to `C=C[C@@H]1C[C@]1(NC(=O)C1C[C@@H](Oc2cc(-c3ccccc3)nc3cc(OC)ccc23)CN1C(=O)[C@@H](NC(C)=O)C(C)(C)C)C(=O)NS(=O)(=O)C1CC1` (stereo partly drawn) [Compound 98, 1-(2S-Acetylamino-3,3-dimethyl-butyryl)-4R-(7-methoxy-2-phenyl-quinolin-4-yloxy)-pyrrolidine-2S-carboxylic acid (1R-cyclopropanesulfonylaminocarbonyl-2S-vinyl-cyclopropyl)amide], the EC50 in test [1] is < 500 nM. Further, in test [2], the IC50 is < 50 nM.

As to `C=CC1C[C@]1(NC(=O)[C@@H]1C[C@@H](Oc2cc(-c3ccccc3)nc3cc(OC)ccc23)CN1C(=O)[C@@H](NC(=O)OC(C)(C)C)C(C)(C)C)C(=O)NS(=O)(=O)CC1CC1` (stereo in doubt) [Compound 16, {1-[2-(1-Cyclopropylmethanesulfonylaminocarbonyl-2-vinylcyclopropylcarbamoyl)-4-(7-methoxy-2-phenylquinolin-4-yloxy)pyrrolidine-1-carbonyl]-2,2-dimethylpropyl}-carbamic acid tert-butyl ester], the EC50 in test [1] is < 500 nM. Moreover, in test [2], the IC50 is < 500 nM.

As to `COc1ccc2c(OC3C[C@@H](C(=O)NC4(C(=O)NS(=O)(=O)C5CC5)CCC45CC5)N(C(=O)[C@@H](NC(=O)OC(C)(C)C)C(C)(C)C)C3)cc(-c3ccccc3)nc2c1` (some centres unmarked) [Compound 141], in test [1], the EC50 is < 5000 nM. Moreover, the IC50 in test [2] was < 500 nM.

Consider `C=CCC[C@](C)(NC(=O)[C@@H]1C[C@@H](Oc2cc(-c3ccccc3)nc3cc(OC)ccc23)CN1C(=O)C(NC(=O)OC(C)(C)C)C(C)(C)C)C(=O)NS(=O)(=O)c1cccc(C)c1` (some centres unmarked) [Compound 36], for which, in test [1], the EC50 is < 500 nM. Further, the IC50 in test [2] was < 50 nM.

Take `C=CCC[C@](C)(NC(=O)[C@@H]1C[C@@H](Oc2cc(-c3ccccc3)nc3cc(OC)ccc23)CN1C(=O)C(NC(=O)OC(C)(C)C)C(C)(C)C)C(=O)NS(=O)(=O)c1cccc(C#N)c1` (some centres unmarked) [Compound 40]: in test [1], the EC50 is < 500 nM. Also, in test [2], the IC50 was < 50 nM.

Take `C=C[C@@H]1C[C@]1(NC(=O)C1C[C@@H](Oc2cc(-c3ccccc3)nc3cc(OC)ccc23)CN1C(=O)[C@@H](Nc1ccccc1[N+](=O)[O-])C(C)(C)C)C(=O)NS(=O)(=O)C1CC1` (stereo partly drawn) [Compound 128, 1-[3,3-dimethyl-2S-(2-nitrophenylamino)-butyryl]-4R-(7-methoxy-2-phenyl-quinolin-4-yloxy)-pyrrolidine-2S-carboxylic acid (1R-cyclopropanesulfonyl-aminocarbonyl-2S-vinylcyclopropyl)amide]: in test [1], the concentration giving a half-maximal response (EC50) is < 5000 nM. Besides, in test [2], the IC50 was < 5000 nM.

Take `C=CC1CC1(NC(=O)[C@@H]1C[C@@H](Oc2cc(-c3ccccc3)nc3cc(OC)ccc23)CN1C(=O)[C@@H](NC(=O)OC(C)(C)C)C(C)C)C(=O)NS(C)(=O)=O` (some centres unmarked) [Compound 89]: the EC50 in test [1] was < 5000 nM. In addition, the IC50 in test [2] is < 500 nM.

Regarding `C=C[C@@H]1C[C@]1(NC(=O)C1C[C@@H](Oc2cc(-c3ccccc3)nc3cc(OC)ccc23)CN1C(=O)[C@@H](NC(=O)COc1ccc(OC)cc1)C(C)(C)C)C(=O)NS(=O)(=O)C1CC1` (some centres unmarked) [Compound 108], the EC50 in test [1] was < 500 nM. In addition, in test [2], the IC50 was < 50 nM.

For the compound `C=CC1C[C@]1(NC(=O)[C@@H]1C[C@@H](Oc2cc(-c3ccccc3)nc3cc(OC)ccc23)CN1C(=O)[C@@H](NC(=O)OC(C)(C)C)C(C)(C)C)C(=O)NS(=O)(=O)c1ccccc1[N+](=O)[O-]` (some centres unmarked) [Compound 51], the EC50 in test [1] is < 500 nM. Moreover, the IC50 in test [2] is < 50 nM.

As for `CCC(C)[C@H](NC(=O)OC(C)(C)C)C(=O)N1C[C@H](Oc2cc(-c3ccccc3)nc3cc(OC)ccc23)C[C@H]1C(=O)NC1(C(=O)NS(=O)(=O)C2CC2)CC1` (some centres unmarked) [Compound 68], in test [1], the EC50 was < 5000 nM. In test [2], the IC50 was < 50 nM.

`C=C[C@@H]1C[C@]1(NC(=O)C1C[C@@H](Oc2cc(-c3ccccc3)nc3cc(OC)ccc23)CN1C(=O)[C@@H](NC(=O)CO)C(C)(C)C)C(=O)NS(=O)(=O)C1CC1` (stereo partly drawn) [Compound 102, 1-[2S-(2-hydroxy-acetylamino)-3,3-dimethyl-butyryl]-4R-(7-methoxy-2-phenyl-quinolin-4-yloxy)-pyrrolidine-2S-carboxylic acid (1R-cyclopropanesulfonylamino-carbonyl-2S-vinyl-cyclopropyl)-amide]: the EC50 in test [1] is < 500 nM. The IC50 in test [2] is < 50 nM.

As for `C=C1C[C@]1(NC(=O)[C@@H]1C[C@@H](Oc2cc(-c3ccccc3)nc3cc(OC)ccc23)CN1C(=O)C(NC(=O)OC(C)(C)C)C(C)(C)C)C(=O)NS(=O)(=O)c1ccccc1F` (some centres unmarked) [Compound 54], the EC50 in test [1] was < 500 nM. The IC50 in test [2] was < 50 nM.

Consider `COc1ccc2c(O[C@@H]3CC(C(=O)NC4(C(=O)NS(=O)(=O)C5CC5)CC4)N(C(=O)[C@@H](NC(=O)OC(C)(C)C)C(C)C)C3)cc(-c3ccccc3)nc2c1` (some centres unmarked) [Compound 21], for which the EC50 in test [1] is < 5000 nM. For the same compound, the IC50 in test [2] was < 50 nM.

With `C=CC1C[C@]1(NC(=O)[C@@H]1C[C@@H](Oc2cc(-c3ccccc3)nc3cc(OC)ccc23)CN1C(=O)C(NC(=O)OC(C)(C)C)C(C)(C)C)C(=O)NS(=O)(=O)c1ccccc1C` (some centres unmarked) [Compound 63], the EC50 in test [1] was < 500 nM. Also, the IC50 in test [2] was < 50 nM.

For the compound `C=CC1C[C@]1(NC(=O)[C@@H]1C[C@@H](Oc2cc(-c3ccccc3)nc3cc(OC)ccc23)CN1C(=O)[C@@H](NC(=O)OC(C)(C)C)C(C)(C)C)C(=O)NS(=O)(=O)c1ccc([N+](=O)[O-])cc1` (some centres unmarked) [Compound 52], the EC50 in test [1] was < 500 nM. In test [2], the IC50 is < 500 nM.

For the compound `C=C1C[C@]1(NC(=O)[C@@H]1C[C@@H](Oc2cc(-c3ccccc3)nc3cc(OC)ccc23)CN1C(=O)C(NC(=O)OC(C)(C)C)C(C)(C)C)C(=O)NS(=O)(=O)c1cc(F)ccc1C` (some centres unmarked) [Compound 46], the EC50 in test [1] was < 500 nM. Also, the IC50 in test [2] was < 50 nM.

Take `C=C[C@@H]1C[C@]1(NC(=O)C1CC(Oc2cc(-c3ccccc3)nc3cc(OC)ccc23)CN1C(=O)[C@@H](NS(=O)(=O)C1CC1)C(C)(C)C)C(=O)NS(=O)(=O)C1CC1` (stereo partly drawn) [Compound 118, 1-(2S-cyclopropanesulfonylamino-3,3-dimethyl-butyryl)-4R-(7-methoxy-2-phenyl-quinolin-4-yloxy)-pyrrolidine-2S-carboxylic acid (1R-cyclopropanesulfonylamino-carbonyl-2S-vinyl-cyclopropyl)-amide]: the EC50 in test [1] is < 500 nM. Also, the concentration for half-maximal inhibition (IC50) in test [2] was < 50 nM.

As to `C=C[C@@H]1C[C@]1(NC(=O)C1CC(Oc2cc(-c3ccccc3)nc3cc(OC)ccc23)CN1C(=O)[C@@H](NC(=O)Oc1ccccc1)C(C)(C)C)C(=O)NS(=O)(=O)C1CC1` (stereo partly drawn) [Compound 116, {1S-[2S-(1R-cyclopropanesulfonylaminocarbonyl-2S-vinyl-cyclopropylcarbamoyl)-4R-(7-methoxy-2-phenyl-quinolin-4-yloxy)-pyrrolidine-1-carbonyl]-2,2-dimethyl-propyl}-carbamic acid phenyl ester], the EC50 in test [1] is < 50 nM. For the same compound, the IC50 in test [2] was < 50 nM.

Regarding `C=C1C[C@]1(NC(=O)[C@@H]1C[C@@H](Oc2cc(-c3ccccc3)nc3cc(OC)ccc23)CN1C(=O)C(NC(=O)OC(C)(C)C)C(C)(C)C)C(=O)NS(=O)(=O)c1ccc(F)cc1` (some centres unmarked) [Compound 49], the EC50 in test [1] is < 500 nM. The IC50 in test [2] was < 50 nM.

Regarding `C=C[C@@H]1C[C@]1(NC(=O)C1C[C@@H](Oc2cc(-c3ccccc3)nc3cc(OC)ccc23)CN1C(=O)[C@@H](NC(=O)C(C)(C)C)C(C)(C)C)C(=O)NS(=O)(=O)C1CC1` (stereo partly drawn) [Compound 101, 1-[2S-(2,2-Dimethylpropionylamino)-3,3-dimethyl-butyryl]-4R-(7-methoxy-2-phenyl-quinolin-4-yloxy)-pyrrolidine-2S-carboxylic acid (1R-cyclo-propanesulfonylaminocarbonyl-2S-vinylcyclopropyl)-amide], the half-maximal effective concentration (EC50) in test [1] was < 500 nM. The IC50 in test [2] was < 50 nM.

As to `C=CC1C[C@]1(NC(=O)[C@@H]1C[C@@H](Oc2cc(-c3ccccc3)nc3cc(OC)ccc23)CN1C(=O)C(NC(=O)OC(C)(C)C)C(C)(C)C)C(=O)NS(=O)(=O)c1cccc2ccccc12` (some centres unmarked) [Compound 35], in test [1], the concentration for a half-maximal effect (EC50) is < 500 nM. Moreover, in test [2], the IC50 is < 50 nM.

For the compound `C=CC1C[C@]1(NC(=O)[C@@H]1C[C@@H](Oc2cc(-c3ccccc3)nc3cc(OC)ccc23)CN1C(=O)[C@@H](NC(=O)OC(C)(C)C)C(C)(C)C)C(=O)NS(=O)(=O)CC(C)(C)C` (stereo in doubt) [Compound 14, {1-[2-[1-(2,2-Dimethylpropane-1-sulfonylaminocarbonyl)-2-vinylcyclopropylcarbamoyl]-4-(7-methoxy-2-phenylquinolin-4-yloxy)pyrrolidine-1-carbonyl]-2,2-dimethylpropyl}-carbamic acid tert-butyl ester], the concentration for a half-maximal effect (EC50) in test [1] was < 500 nM. For the same compound, in test [2], the IC50 is < 500 nM.

For `C=CC1C[C@]1(NC(=O)[C@@H]1C[C@@H](Oc2cc(-c3ccccc3)nc3cc(OC)ccc23)CN1C(=O)[C@@H](NC(=O)OC(C)(C)C)C(C)(C)C)C(=O)NS(=O)(=O)CCC` (some centres unmarked) [Compound 26], the EC50 in test [1] was < 500 nM. The IC50 in test [2] is < 50 nM.
